Tests used:
Assay type in all cases: cell-based, human
53BP1 and Rad51 foci = 53BP1 and Rad51 foci immunostaining in MDAMB231 cells; conditions: MDAMB231, 24 h, 16 μM AsiDNA +/− 1 μM olaparib
Description: FIG. 9: Effect of the combined treatment AsiDNA and olaparib on DNA repair. Representative images of γH2AX (red) and Rad51 or 53BP1 (green) foci in MDAMB231 (A) or MCF10 (C) cells treated 24 h with Ola and/or AsiDNA. (B, D) Numbering of 53BP1 and Rad51 foci in 100 MDAMB231 cells (B) or MCF10A cells (D) 24 h after Ola and/or AsiDNA treatment. Red bars represent the mean values. (E, F) DNA damage monitored by alkaline comet assay 24 h after Ola and/or AsiDNA treatment in MDAMB231 (E) or MCF10A (F) cells. ns: not significant; *: p<0.05; ****: p<0.0001.
FIG. 10: AsiDNA inhibits irradiation-induced 53BP1 foci. Numbering of 53BP1 foci in 100 MDAMB231 cells 2 h after 10Gy irradiation, 22 h after prior treatment with AsiDNA and/or Ola. Red bars represent the mean values. *: p<0.05; **: p<0.01; ****: p<0.0001.
For immunostaining, MDAMB231 cells are seeded on cover slips (Menzel, Braunschweig, Germany) at a concentration of 5×10^5 cells and incubated at 37° C. during 1 day. Cells are then treated with 16 μM AsiDNA+/−1 μM olaparib. 24 h after treatment, cells are fixed for 20 min in 4% paraformaldehyde/Phosphate-Buffered Saline (PBS 1×), permeabilized in 0.5% Triton X-100 for 10 min, blocked with 2% bovine serum albumin/PBS 1× and incubated with primary antibody for 1 h at 4° C. […]

HCC70 = test: Cell death and proliferation; conditions: 0.1 μM Ola, 4.8 μM AsiDNA; sensitive = difference in % dead cells higher than two-fold
Description: (§1) Efficacy of Ola and AsiDNA was assessed by measuring cell death and proliferation in 12BC cell lines including 4BRCA-mutated cell lines (FIGS. 4A and B and FIG. 5). In addition, HeLa cells silenced for BRCA1 or BRCA2 genes were used as a control of BRCA mutation factor and 3 immortalized mammary cell lines (MCF10A, MCF12A and 184B5) as non-tumor controls. The concentration of the drugs (0.1 μM for Ola and 4.8 μM for AsiDNA) were chosen based on the 75-80% survival in the BC227 BRCA2^−/− mutant. […] Ola and AsiDNA treatments had no effect on the three control non-tumor cell lines.
(§2) Cells were grown according to the supplier's instructions.

HCC1143 = test: Cell death and proliferation; conditions: 0.1 μM Ola, 4.8 μM AsiDNA; sensitive = difference in % dead cells higher than two-fold
Description: as §1, §2

MCF7 = test: Cell death and proliferation; conditions: 0.1 μM Ola, 4.8 μM AsiDNA; sensitive = difference in % dead cells higher than two-fold
Description: as §1, §2

BT20 = test: Cell death and proliferation; conditions: 0.1 μM Ola, 4.8 μM AsiDNA; sensitive = difference in % dead cells higher than two-fold
Description: as §1, §2

SK28 Lsh DNA-PKcs = test: Cell survival, trypan blue counting; conditions: 4.80 μM of AsiDNA and/or 0.1 μM of Ola; day 6 after treatment
Description: Cells were grown according to the supplier's instructions. Cell lines were maintained at 37° C. in a humidified atmosphere at 5% CO2.
AsiDNA or PARPi cytotoxicity was measured by relative survival and cell death quantification. Adherent cells were seeded in 24-well culture plates at appropriate densities and incubated 24 hours at 37° C. before AsiDNA and/or PARPi addition. Cells were harvested day 6aftertreatment, stained with 0.4% trypan blue (Sigma Aldrich, Saint-Louis, USA) and counted with a Burker chamber. Cell survival was calculated as ratio of living treated cells to living mock-treated cells. Cell death was calculated as the number of dead cells on the total number of counted cells. Additivity of the toxicity was calculated by the product of cell survivals to AsiDNA and cell survivals to PARPi.

BRCA^−/− cell lines = test: Cell death and proliferation in BRCA-mutated cell lines; conditions: 0.1 μM Ola, 4.8 μM AsiDNA; sensitive = difference in % dead cells higher than two-fold
Description: as §1, §2

[1] = tested on: 3 immortalized mammary cell lines (MCF10A, MCF12A and 184B5); test: Cell death and proliferation in non-tumor controls; conditions: 0.1 μM for Ola and 4.8 μM for AsiDNA
Description: as §1, §2

XRCC1 = test: XRCC1-eYFP recruitment to laser damage sites in MDAMB231 cells; conditions: MDAMB231, 24 h of treatment with Ola (1 μM) and/or AsiDNA (16 μM)
Description: FIG. 8: Olaparib inhibits XRCC1 recruitment to damage sites independently of AsiDNA. (A) Representative images of XRCC1-eYFP recruitment 40 secondes after laser damage and (B) kinetic of XRCC1-eYFP recruitment in MDAMB231 cells after 24 h of treatment with Ola (1 μM) and/or AsiDNA (16 μM). ns: not significant; ****: p<0.0001. These experiments were performed with a Leica SP5 confocal system, attached to a DMI6000 stand using a 63/1.4 objective, under a controlled environment (37° C., 5% CO2). All records were made using the appropriate sampling frequency (512_512 images, line average of four and zooming set to eight) and an argon laser line (514 nm for YFP) adapted to the fluorescent protein of interest. In the first step, two images were acquired within a period of 2-3 s at a laser energy setting sufficiently low not to induce any photodynamic damage. The 405-nm laser line (diode) was then set to maximum output for 100 ms and focused onto a single spot of constant size (176 nm) within the nucleus to cause a point of photo damage with a reproducible amount of energy. Recruitment of the protein of interest was then monitored by fluorescence using the same setting as for the pre-damage sequence. Laser damage was induced 24 h after treatment with AsiDNA (16 μM), olaparib (1 μM) or both. Images were captured at 2 s intervals for the following 52 s. […]

O=C(c1cc(Cc2n[nH]c(=O)c3ccccc23)ccc1F)N1CCN(C(=O)C2CC2)CC1 [Olaparib, 4-[(3-[(4-cyclopropylcarbonyl)piperazin-4-yl]carbonyl)-4-fluorophenyl]methyl(2H)-phthalazin-1-one]
γH2AX, 53BP1 and Rad51 foci in the absence of DNA damaging treatment (53BP1 and Rad51 foci): induces the accumulation of DSBs | sensitivity to treatment (HCC70): resistant to both treatments | sensitivity to treatment (HCC1143): sensitive only to AsiDNA | sensitivity to treatment (MCF7): resistant to both treatments | sensitivity to treatment (BT20): resistant to both treatments | Survival (%/NT) (SK28 Lsh DNA-PKcs): 80.9 %/NT | sensitivity to treatment (BRCA^−/− cell lines): sensitive to both treatments | effect on cell death and proliferation [1]: no effect | XRCC1 foci recruitment (XRCC1): significantly delayed

Source: US10563197B2, “Use of a combination of Dbait molecule and PARP inhibitors to treat cancer” (INSTITUT CURIE, priority 2015, dated 2020)
